Experimental data published in PubChem BioAssay (NCI).
“And” between values parts separate entries of the source, which are not always exact repeats. Equal entries are not always repeated.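 Tested at 5 concentrations; 48 h exposure; 96-well plates; endpoints linearly interpolated, else capped at highest concentration. The concentration for 50% growth inhibition is given as GI50. TGI denotes the concentration required for complete inhibition of growth.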

How the values were obtained:
Experiment in all cases: NCI tumour cell line growth inhibition, 48 h
786-0 renal = test system: 786-0 renal
HOP-18 NSCLC = test system: HOP-18 NSCLC
SN12K1 renal = test system: SN12K1 renal
XF 498 CNS = test system: XF 498 CNS
DLD-1 colon = test system: DLD-1 colon
P388/ADR leukemia = test system: P388/ADR leukemia
DMS 273 small cell lung = test system: DMS 273 small cell lung
SNB-78 CNS = test system: SNB-78 CNS
RXF-631 renal = test system: RXF-631 renal
LXFL 529 NSCLC = test system: LXFL 529 NSCLC

SMILES	TGI (786-0 renal) [µM]	TGI (HOP-18 NSCLC) [µM]	TGI (SN12K1 renal) [µM]	TGI (XF 498 CNS) [µM]	TGI (DLD-1 colon)	TGI (P388/ADR leukemia) [µM]	TGI (DMS 273 small cell lung) [µM]	TGI (SNB-78 CNS)	TGI (RXF-631 renal)	TGI (LXFL 529 NSCLC)	GI50 (RXF-631 renal) [nM]	GI50 (HOP-18 NSCLC) [µM]	GI50 (DLD-1 colon) [µM]	GI50 (SNB-78 CNS) [nM]
N#Cc1ccc(Nc2nc3nc[nH]c3c(=O)[nH]2)cc1	> 100													
NC(=O)c1cc2ccccc2c(N=Nc2ccccc2)c1O	> 100													
Cc1c2cc[n+](C)cc2c(COC2OC(CO)C(O)C2O)c2c3ccccc3n(C)c12 (stereo not drawn)		> 100	> 100	> 97.3	> 100 µM	> 100	> 100	> 100 µM						
Cc1c2cc[n+](C)cc2c(C)c2c1[nH]c1ccc(O)cc12		> 94.5	> 82.7		> 100 µM	> 77.4	> 78.6	> 100 µM						
C[Si](C)(C)C#C[I+]c1ccccc1	> 100	> 100		> 100	40.9 µM		44.5	> 100 µM	> 100 µM	95200 nM				
COc1cccc2c1C(=O)c1c(O)c3c(c(O)c1C2=O)C[C@@](O)(C(C)=O)C[C@@H]3OC1CC(N)C(O)C(C)O1 (stereo partly drawn)			0.215		5.53 µM and 6.33 µM and > 5.01 µM	9.87		2.49 µM and 3.43 µM	3.12 µM and 4.25 µM	1480 nM and 1360 nM and > 5010 nM	212	> 5.01	> 5.01	184
